Test results from ChEMBL document CHEMBL4368853 (Medchemcomm, 2018).
pEC50, pIC50, pKd, pKi: −log10 of the molar value.

Legend:
CHP-212 = assay: Antitumor activity against human CHP212 cells xenografted in Crl:CD-1-Foxn1 nude mouse assessed as tumor growth inhibition at 15 mg/kg, po administered once daily for 42 days relative to control; format: functional; settings: CHP-212, po, 1008 h, read-out: TGI
[1] = Oral bioavailability in dog; format: ADME, organism-based, Canis lupus familiaris; settings: in vivo
[2] = Oral bioavailability in monkey; format: ADME, organism-based, Macaca mulatta; settings: rhesus monkey, in vivo
[3] = biological target: T1, Bromodomain-containing protein 4 (Homo sapiens, UniProt O60885); assay: Inhibition of acetyl-histone H4 peptide binding to His6-tagged BRD4 (1 to 477 residues) (unknown origin) after 35 mins by TR-FRET assay
MX1 [4] = assay: Antiproliferative activity against human MX1 cells after 72 hrs by CellTiter-Glo assay; format: functional, cell-based; settings: MX1, 72 h
OPM-2 [5] = assay: Antitumor activity against human OPM2 cells xenografted in SCID Beige mouse assessed as tumor growth inhibition at 2.5 mg/kg, po administered once daily for 21 days relative to control; format: functional; settings: OPM-2, po, 504 h, read-out: TGI
[6] = biological target: T1, Bromodomain-containing protein 4; assay: Inhibition of His-tagged BRD4 bromodomain 1 (K57 to E168 residues) (unknown origin) by Alexa-647 conjugated probe based TR-FRET assay; format: single protein
[7] = biological target: T1, Bromodomain-containing protein 4; assay: Inhibition of His-tagged BRD4 bromodomain 2 (E352 to M457 residues) (unknown origin) by Alexa-647 conjugated probe based TR-FRET assay; format: single protein
[8] = biological target: T1, Bromodomain-containing protein 4; assay: Binding affinity to BRD4 bromodomain 1 (unknown origin) by isothermal titration calorimetry
HL-60 = assay: Growth inhibition of human HL60 cells at 10 uM after 48 hrs by sulforhodamine B assay; format: functional; settings: HL-60, 48 h, read-out: GI
[9] = biological target: T1, Bromodomain-containing protein 4; assay: Binding affinity to human partial length BRD4 bromodomain 1 long isoform (N44 to E168 residues) expressed in bacterial expression system by BROMOscan assay
[10] = biological target: T1, Bromodomain-containing protein 4
Description: Inhibition of biotinylated Acetyl-Histone H4 (Lys5, 8, 12, 16) peptide binding to GST-tagged BRD4 bromodomain 1 (44 to 168 residues) (unknown origin) after 30 mins by Alphascreen method

Z-138 = assay: Induction of apoptosis in human ibrutinib-resistant Z138 cells after 48 hrs by Annexin-V/propidium iodide staining based assay; format: functional, cell-based; settings: Z-138, 48 h
VCaP = assay: Antitumor activity against human VCaP cells xenografted in mouse assessed as tumor growth inhibition at 30 mg/kg, sc administered once every 3 days for 15 days; settings: 360 h, read-out: TGI
[11] = Induction of apoptosis in human Mino cells after 48 hrs by Annexin-V/propidium iodide staining based assay; format: functional, cell-based
[12] = biological target: T1, Bromodomain-containing protein 4; assay: Inhibition of biotin-labelled histone peptide binding to His-tagged BRD4 (unknown origin) expressed in Escherichia coli after 30 mins by TR-FRET assay
[13] = biological target: T1, Bromodomain-containing protein 4; assay: Inhibition of biotin-labelled tetra-acetylated histone peptide binding to recombinant human N-terminal His6-tagged BRD4 bromodomain 1 (1 to 477 residues) (unknown origin) expressed in Escherichia coli after 1 hr by TR-FRET assay
MV4-11 [14] = assay: Antiproliferative activity against human MV4-11 cells; format: functional, cell-based
MX1 [15] = assay: Antiproliferative activity against human MX1 cells; format: functional, cell-based
[16] = biological target: T1, Bromodomain-containing protein 4; assay: Inhibition of biotinylated Acetyl-Histone H4 (Lys5, 8, […], […]) peptide binding to GST-tagged BRD4 bromodomain 2 (333 to 460 residues) (unknown origin) after 30 mins by Alphascreen method
OPM-2 [17] = assay: Antitumor activity against human OPM2 cells xenografted in SCID Beige mouse assessed as tumor growth inhibition at 5 mg/kg, po administered once daily for 21 days relative to control; format: functional; settings: OPM-2, po, 504 h, read-out: TGI
[18] = biological target: T1, Bromodomain-containing protein 4; assay: Inhibition of recombinant human N-terminal His-tagged/C-terminal FLAG-tagged BRD4 bromodomain 1 (44 to 168 residues) expressed in Escherichia coli using histone peptide as substrate preincubated for 15 mins followed by substrate addition and measured after 60 mins
MV4-11 [19] = assay: Antiproliferative activity against human MV4-11 cells after 72 hrs by CellTiter-Glo assay; format: functional, cell-based; settings: MV4-11, 72 h
MDA-MB-453 [20] = assay: Antitumor activity against human MDA-MB-453 cells xenografted in SCID mouse assessed as tumor growth inhibition at 5 mg/kg, iv; settings: MDA-MB-453, iv, read-out: TGI
MDA-MB-453 [21] = assay: Antiproliferative activity against human MDA-MB-453 cells; format: functional, cell-based
[22] = biological target: T1, Bromodomain-containing protein 4; assay: Inhibition of acetylated biotin-labelled RHGSGSK binding to N-terminal His6-tagged BRD4 bromodomain 1 (67 to 152 residues) (unknown origin) expressed in Escherichia coli after 1 hr by TR-FRET assay
[23] = biological target: T1, Bromodomain-containing protein 4; assay: Inhibition of acetylated biotin-labelled RHGSGSK binding to BRD4 bromodomain 2 (unknown origin) after 1 hr by TR-FRET assay
[24] = biological target: T1, Bromodomain-containing protein 4; assay: Inhibition of His6-tagged BRD4 (1 to 477 residues) (unknown origin) after 1 hr by Alexa fluor 488-conjugated probe based fluorescence anisotropy
MOLM-13 [25] = assay: Antiproliferative activity against human MOLM13 cells after 96 hrs by alamar blue assay; format: functional, cell-based; settings: MOLM-13, 96 h
[26] = biological target: T1, Bromodomain-containing protein 4; assay: Inhibition of acetylated biotin-labelled RHGSGSK binding to N-terminal His6-tagged BRD4 bromodomain 1 (44 to 168 residues) (unknown origin) expressed in Escherichia coli after 1 hr by TR-FRET assay
[27] = biological target: T1, Bromodomain-containing protein 4; assay: Inhibition of biotinylated histone H4 peptide binding to BRD4 bromodomain 1 (44 to 168 residues) (unknown origin) after 60 mins by Alphascreen method
[28] = biological target: T1, Bromodomain-containing protein 4; assay: Inhibition of biotinylated histone H4 peptide binding to BRD4 bromodomain 2 (333 to 460 residues) (unknown origin) after 60 mins by Alphascreen method
[29] = biological target: Bromodomain-containing protein 4 (Homo sapiens, UniProt O60885, Y97A); assay: Inhibition of recombinant human N-terminal His6-tagged BRD4 Y97A mutant (1 to 477 residues) expressed in Escherichia coli after 30 mins by Alexa Fluor647 conjugated probe based TR-FRET assay
MV4-11 [30] = assay: Antitumor activity against human MV4-11 cells xenografted in po dosed mouse assessed as tumor regression administered once daily relative to control; format: functional
[31] = biological target: T1, Bromodomain-containing protein 4; assay: Inhibition of BRD4 bromodomain 2 (unknown origin)
[32] = biological target: T1, Bromodomain-containing protein 4; assay: Inhibition of BRD4 bromodomain 1 (unknown origin)
[33] = Oral bioavailability in rat; format: ADME, organism-based; settings: in vivo
MOLM-13 [34] = assay: Antiproliferative activity against human MOLM13 cells; format: functional, cell-based
[35] = biological target: T1, Bromodomain-containing protein 4; assay: Inhibition of BRD4 in human MM1S cells assessed as down regulation of c-Myc expression after 1 hr by Western blot analysis
[36] = Antiproliferative activity against human CLL cells assessed as inhibition of CpG-induced cell proliferation treated for 4 hrs followed by compound washout for 44 to 48 hrs by MTS assay; format: functional, cell-based

SMILES: CC(=O)N1c2ccc(-c3ccc(C(=O)O)cc3)cc2[C@H](Nc2ccc(Cl)cc2)C[C@@H]1C
- inhibition in vivo at 15 mg/kg (CHP-212): 82%
- bioavailability [1]: 80%
- bioavailability [2]: 100%

SMILES: Cc1nn(C2CC2)c2c1[C@@H](c1ccc(Cl)cc1)N(c1cc(C)c3nnc(C)n3n1)C2=O
- pIC50 [3]: > 7.96

SMILES: Cn1cc2c3c(c[nH]c(=O)c31)CN(c1ccccn1)c1ccc(CS(C)(=O)=O)cc1-2
- pEC50 (MX1 [4]): 7.80
- inhibition in vivo at 2.5 mg/kg (OPM-2 [5]): 79%
- pIC50 [6]: 8.96
- pIC50 [7]: 8.68

SMILES: CCc1c(C(=O)Nc2cc(S(=O)(=O)N(CC)CC)ccc2O)[nH]c(C)c1C(C)=O
- pKd [8]: 6.63
- inhibition of growth at 10 µM (HL-60): 65%

SMILES: CC(=O)N1CC(n2cc(C3CC3)c3c2C(c2ccc(Cl)cc2)N(c2cc(C)c4nnn(C)c4n2)C3=O)C1 (stereo not given)
- pIC50 [3]: > 7.96

SMILES: Cc1sc2c(c1C)C(c1ccc(Cl)cc1)=N[C@@H](CC(=O)OCCCCCCO)c1nnc(C)n1-2
- pIC50 [9]: 9.37

SMILES: CCN1C(=O)C(C)(C)c2cc3nc(-c4cc(C)c(=O)n(C)c4)n([C@@H](C)c4ccccc4)c3cc21
- pIC50 [10]: 8.89

SMILES: Cc1ncsc1-c1ccc([C@H](C)NC(=O)[C@@H]2C[C@@H](O)CN2C(=O)[C@@H](NC(=O)COCCCOCCNC(=O)C[C@@H]2N=C(c3ccc(Cl)cc3)c3c(sc(C)c3C)-n3c(C)nnc32)C(C)(C)C)cc1
- pIC50 (Z-138): 6.85
- inhibition in vivo at 30 mg/kg (VCaP): 60%
- pIC50 [11]: 7.77

SMILES: COc1ccc2c(ncc3nc(C4CCOCC4)n([C@H](C)COC(F)F)c32)c1-c1c(C)noc1C
- pIC50 [12]: 7.68 to 8.00

SMILES: COc1ccc2c(ncc3nc(C4CCC(F)(F)CC4)n([C@H](C)COC(F)F)c32)c1-c1c(C)noc1C
- pIC50 [12]: 7.68 to 8.00

SMILES: Cc1noc(C)c1-c1ccc2c(c1)C(C1CCCC1)(N1CCC[C@H](N)C1)C(=O)N2 (stereo not given in full)
- pIC50 [13]: 8.10
- pIC50 (MV4-11 [14]): 7.47

SMILES: CCS(=O)(=O)Nc1ccc(Oc2ccc(F)cc2F)c(-c2cn(C)c(=O)c3[nH]c(C#CCN(C)C)cc23)c1
- pKi [10]: 8.89
- pEC50 (MX1 [15]): 8.03
- pKi [16]: 8.48

SMILES: Cn1cc2c3c(c[nH]c(=O)c31)CN(c1ccc(F)cc1F)c1ccc(CS(C)(=O)=O)cc1-2
- inhibition in vivo at 5 mg/kg (OPM-2 [17]): 81%
- pEC50 (MX1 [4]): 7.80
- pIC50 [6]: 8.74
- pIC50 [7]: 8.70

SMILES: CC[C@@H]1C(=O)Nc2ccc(-c3c(C)noc3C)cc2N1Cc1ccccc1
- pIC50 [18]: 7.15
- pIC50 (MV4-11 [19]): 6.59

SMILES: CCn1nc(C2CC2)cc1Nc1nc(C(=O)NCCCOCCOCCOCCCNc2cccc3c2CN(C2CCC(=O)NC2=O)C3=O)nc2[nH]c3cc(-c4c(C)noc4C)c(OC)cc3c12 (stereo not given)
- inhibition in vivo at 5 mg/kg (MDA-MB-453 [20]): 85%
- pIC50 (MDA-MB-453 [21]): > 8.00
- IC90 (MDA-MB-453 [21]): < 100 nM

SMILES: C[C@@H]1C(=O)N(C)c2ccc(-c3ccc(Nc4cccc(S(=O)(=O)N(C)C)c4)cc3)nc2N1C1CCN(C)CC1
- pIC50 [22]: 7.70
- pIC50 [23]: 7.37

SMILES: COc1cnc2c(ncc3[nH]c(=O)n(Cc4ccccc4)c32)c1-c1c(C)noc1C
- pIC50 [24]: 6.50

SMILES: Cc1nnc(C[C@@H]2N=C(c3ccc(Cl)cc3)c3ccccc3-n3c(C)nnc32)o1
- pEC50 (MOLM-13 [25]): 6.85
- pIC50 [26]: 7.70

SMILES: COc1ccc2c(ncc3nc(N4CCOCC4)n([C@H](C)COC(F)F)c32)c1-c1c(C)noc1C
- pIC50 [12]: 8.00

SMILES: CC(=O)N1c2ccc(-c3ccc(-c4cnn(C5CC5)c4)c(OC[C@H]4CC4(F)F)c3)cc2CC[C@H]1C
- pIC50 [27]: > 7.00
- pIC50 [28]: > 7.30

SMILES: COc1cnc2c(ncc3[nH]c(=O)n(Cc4ccccc4OC(F)(F)F)c32)c1-c1c(C)noc1C
- pIC50 [24]: 6.80

SMILES: CC(=O)N1c2ccc(-c3ccc(C#N)cc3)cc2[C@H](Nc2ncccc2F)[C@@H](C)[C@@H]1C1CC1
- pIC50 [29]: > 7.00

SMILES: COc1ccc2c([nH]c3nc(C)nc(-c4ccnc5ccccc45)c32)c1-c1c(C)noc1C
- Activity (MV4-11 [30]): >80%
- pKi [31]: 8.85
- pKi [32]: 8.09
- pIC50 (MV4-11 [14]): 7.59
- bioavailability [33]: 93%
- pIC50 (MOLM-13 [34]): 7.28

SMILES: COc1nnc2ccc(N3CCC(c4ccc(OCCN5CCN(C)C(=O)[C@H]5C)cc4)CC3)nn12 [AZD-5153]
- pIC50 [35]: 8.27

SMILES: Cc1noc(C)c1-c1cnc2c(-c3ccc(C(=O)O)cc3)cn([C@@H](C)c3ccccn3)c2c1 [PLX-51107]
- pIC50 [36]: 5.00 to 6.81
